Molecular target: 3-beta-hydroxysteroid-Delta(8),Delta(7)-isomerase (Homo sapiens, UniProt Q15125)
Experiment: Displacement of [3H]ifenprodil from FLAG-tagged EBP (unknown origin) overexpressing human Expi293F cells measured after 20 mins by Microbeta microplate counter
Type: cell-based

Chain of 3-beta-hydroxysteroid-Delta(8),Delta(7)-isomerase (Q15125 whole entry): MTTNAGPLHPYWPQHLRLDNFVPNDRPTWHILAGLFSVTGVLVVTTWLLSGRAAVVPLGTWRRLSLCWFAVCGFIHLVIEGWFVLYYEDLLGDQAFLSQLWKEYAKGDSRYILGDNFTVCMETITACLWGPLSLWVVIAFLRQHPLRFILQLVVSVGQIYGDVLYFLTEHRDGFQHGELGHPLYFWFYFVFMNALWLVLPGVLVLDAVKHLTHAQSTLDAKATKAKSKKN

IC50	Compound
< 15 nM	Cn1nc(C2CCC2)cc1S(=O)(=O)N1CC2(CN(C3CCOCC3)C2)C1
< 15 nM	Cc1cc(C(F)(F)F)nc(C)c1S(=O)(=O)N1CC2(CN(Cc3ccn(C)n3)C2)C1
< 15 nM	CCc1cnccc1CN1CC2(C1)CN(S(=O)(=O)c1ccc(C(F)(F)F)nc1C)C2
< 15 nM	Cn1nc(C2CCCCC2)cc1S(=O)(=O)N1CC2(CN(C3CCOCC3)C2)C1
< 15 nM	Cn1nc(-c2ccccc2)cc1S(=O)(=O)N1CC2(CN(C3CCOCC3)C2)C1
< 15 nM	Cc1nc(C(F)(F)C(F)(F)F)ccc1S(=O)(=O)N1CC2(CN(C3CCOCC3)C2)C1

— ChEMBL document CHEMBL6134913, “Novel Emopamil-Binding Protein Inhibitors for Treating Multiple Sclerosis” (ACS Med Chem Lett, 2025)
